Read-outs that look alike come from different tables or passages of the source.
Tested on: HIV
Assay: Table 1 IC50 of the examples (assay method not given; patent concerns inhibiting HIV replication)
Assay type: cell-based

Structure (SMILES)	IC50 (Human immunodeficiency virus 1) [nM]	IC50 [nM]
Cc1cc2c(c(-c3cc(F)c4c(c3C)CCCO4)c1[C@H](OC(C)(C)C)C(=O)O)CCN2C(=O)c1cc2ccccc2[nH]1 (atropisomer, axis not shown) [Example 129, (S)-2-(tert-Butoxy)-2-((R)-4-(8-fluoro-5-methylchroman-6-yl)-1-(1H-indole-2-carbonyl)-6-methylindolin-5-yl)acetic acid]	22	
Cc1cc2c(ccn2C(=O)c2ccc(F)c(F)c2)c(-c2cc(F)c3c(c2C)CCCO3)c1[C@H](OC(C)(C)C)C(=O)O (atropisomer, axis not shown) [Example 203, (S)-2-(tert-Butoxy)-2-((R)-1-(3,4-difluorobenzoyl)-4-(8-fluoro-5-methylchroman-6-yl)-6-methyl-1H-indol-5-yl)acetic acid]	16	
COc1cccc(OC)c1C(=O)N1CCc2c1cc(C)c([C@H](OC(C)(C)C)C(=O)O)c2-c1cc(F)c2c(c1C)CCCO2 (atropisomer, axis not shown) [Example 79, (S)-2-(tert-Butoxy)-2-((R)-1-(2,6-dimethoxybenzoyl)-4-(8-fluoro-5-methylchroman-6-yl)-6-methylindolin-5-yl)acetic acid]	55	
COc1ccc(C(=O)N2CCc3c2cc(C)c([C@H](OC(C)(C)C)C(=O)O)c3-c2cc(F)c3c(c2C)CCCO3)cc1F (atropisomer, axis not shown) [Example 74, (S)-2-(tert-butoxy)-2-((R)-1-(3-fluoro-4-methoxybenzoyl)-4-(8-fluoro-5-methylchroman-6-yl)-6-methylindolin-5-yl)acetic acid]	5	
Cc1cc2c(c(-c3cc(F)c4c(c3C)CCCO4)c1[C@H](OC(C)(C)C)C(=O)O)CCN2C(=O)c1cccnc1C (atropisomer, axis not shown) [Example 173, (S)-2-(tert-butoxy)-2-((R)-4-(8-fluoro-5-methylchroman-6-yl)-6-methyl-1-(2-methylnicotinoyl)indolin-5-yl)acetic acid]	13	
Cc1ccc(C(=O)N2CCc3c2cc(C)c([C@H](OC(C)(C)C)C(=O)O)c3-c2cc(F)c3c(c2C)CCCO3)cc1 (atropisomer, axis not shown) [Example 108, (S)-2-(tert-Butoxy)-2-((R)-4-(8-fluoro-5-methylchroman-6-yl)-6-methyl-1-(4-methylbenzoyl)indolin-5-yl)acetic acid]	4	
COc1c(F)cccc1C(=O)N1CCc2c1cc(C)c([C@H](OC(C)(C)C)C(=O)O)c2-c1cc(F)c2c(c1C)CCCO2 (atropisomer, axis not shown; (P)) [Example 23, (S)-2-(tert-Butoxy)-2-((P)-1-(3-fluoro-2-methoxybenzoyl)-4-(8-fluoro-5-methylchroman-6-yl)-6-methylindolin-5-yl)acetic acid]		95
Cc1ccccc1C(=O)N1CCc2c1cc(C)c([C@H](OC(C)(C)C)C(=O)O)c2-c1ccc2c(c1C)CCCO2 (atropisomer, axis not shown) [Example 188, (S)-2-(tert-Butoxy)-2-((R)-6-methyl-1-(2-methylbenzoyl)-4-(5-methylchroman-6-yl)indolin-5-yl)acetic acid]	5	
Cc1cc2c(c(-c3cc(F)c4c(c3C)CCCO4)c1[C@H](OC(C)(C)C)C(=O)O)CCN2C(=O)c1ccc(C(F)(F)F)nc1 (atropisomer, axis not shown) [Example 172, (S)-2-(tert-butoxy)-2-((R)-4-(8-fluoro-5-methylchroman-6-yl)-6-methyl-1-(6-(trifluoromethyl)nicotinoyl)indolin-5-yl)acetic acid]	6	
Cc1ccc(C(=O)N2CCc3c2cc(C)c([C@H](OC(C)(C)C)C(=O)O)c3-c2cc(C(F)(F)F)c3c(c2C)CCCO3)cn1 (atropisomer, axis not shown) [Example 197, (S)-2-(tert-Butoxy)-2-((R)-6-methyl-4-(5-methyl-8-(trifluoromethyl)chroman-6-yl)-1-(6-methylnicotinoyl)indolin-5-yl)acetic acid]	712	
COc1c(Cl)cccc1C(=O)N1CCc2c1cc(C)c([C@H](OC(C)(C)C)C(=O)O)c2-c1cc(F)c2c(c1C)CCCO2 (atropisomer, axis not shown) [Example 75, (S)-2-(tert-Butoxy)-2-((R)-1-(3-chloro-2-methoxybenzoyl)-4-(8-fluoro-5-methylchroman-6-yl)-6-methylindolin-5-yl)acetic acid]	6.61	
Cc1cc2c(c(-c3cc(F)c4c(c3C)CCCO4)c1[C@H](OC(C)(C)C)C(=O)O)CCN2C(=O)CCc1ccccc1 (atropisomer, axis not shown) [Example 58, (S)-2-(tert-Butoxy)-2-((R)-4-(8-fluoro-5-methylchroman-6-yl)-6-methyl-1-(3-phenyl/propanoyl)indolin-5-yl)acetic acid]	41	
Cc1cc2c(c(-c3cc(F)c4c(c3C)CCCO4)c1[C@H](OC(C)(C)C)C(=O)O)CCN2C(=O)c1cccc(C(F)(F)F)c1F (atropisomer, axis not shown) [Example 160, (S)-2-(tert-Butoxy)-2-((R)-1-(2-fluoro-3-(trifluoromethyl)benzoyl)-4-(8-fluoro-5-methylchroman-6-yl)-6-methylindolin-5-yl)acetic acid]	14	
Cc1cc2c(c(-c3cc(F)c4c(c3C)CCCO4)c1[C@H](OC(C)(C)C)C(=O)O)CCN2C(=O)c1cncc(F)c1 (atropisomer, axis not shown) [Example 76, (S)-2-(tert-Butoxy)-2-((R)-4-(8-fluoro-5-methylchroman-6-yl)-1-(5-fluoronicotinoyl)-6-methylindolin-5-yl)acetic acid]	15	
COc1ccc(C(=O)N2CCc3c2cc(C)c([C@H](OC(C)(C)C)C(=O)O)c3-c2ccc(C)cc2)cc1 [Example 13, (S)-2-(tert-Butoxy)-2-(1-(4-methoxybenzoyl)-6-methyl-4-(p-tolyl)indolin-5-yl)acetic acid]	11	
Cc1cc2c(c(-c3cc(F)c4c(c3C)CCCO4)c1[C@H](OC(C)(C)C)C(=O)O)CCN2C(=O)c1cc(F)ccc1Cl (atropisomer, axis not shown) [Example 150, (S)-2-(tert-Butoxy)-2-((R)-1-(2-chloro-5-fluorobenzoyl)-4-(8-fluoro-5-methylchroman-6-yl)-6-methylindolin-5-yl)acetic acid]	8	
Cc1ccc(-c2c3c(cc(C)c2C(OC(C)(C)C)C(=O)O)N(C(=O)Nc2ccc(F)cc2)CC3)cc1 (stereo not drawn) [Example 7, 2-(tert-Butoxy)-2-(1-((4-fluorophenyl)carbamoyl)-6-methyl-4-(p-tolyl)indolin-5-yl)acetic acid]	3010	
COC(=O)c1cccc(CN2CCCc3c2cc(C)c(C(OC(C)(C)C)C(=O)O)c3-c2ccc(C)cc2)c1 (stereo not drawn) [Example 209, 2-(tert-Butoxy)-2-(1-(3-(methoxycarbonyl)benzyl)-7-methyl-5-(p-tolyl)-1,2,3,4-tetrahydroquinolin-6-yl)acetic acid]	1340	
Cc1cc2c(c(-c3cc(F)c4c(c3C)CCCO4)c1[C@H](OC(C)(C)C)C(=O)O)CCN2C(=O)c1ccc(F)cc1F (atropisomer, axis not shown) [Example 60, (S)-2-(tert-Butoxy)-2-((R)-1-(2,4-difluorobenzoyl)-4-(8-fluoro-5-methylchroman-6-yl)-6-methylindolin-5-yl)acetic acid]	6	
Cc1cc2c(c(-c3cc(F)c4c(c3C)CCCO4)c1[C@H](OC(C)(C)C)C(=O)O)CCN2C(=O)c1cc(Cl)ccc1Cl (atropisomer, axis not shown) [Example 68, (S)-2-(tert-Butoxy)-2-((R)-1-(2,5-dichlorobenzoyl)-4-(8-fluoro-5-methylchroman-6-yl)-6-methylindolin-5-yl)acetic acid]	13	
COc1c(F)cccc1C(=O)N1CCc2c1cc(C)c([C@H](OC(C)(C)C)C(=O)O)c2-c1cc(F)c2c(c1C)CCCO2 (atropisomer, axis not shown) [Example 45, (S)-2-(tert-Butoxy)-2-((R)-1-(3-fluoro-2-methoxybenzoyl)-4-(8-fluoro-5-methylchroman-6-yl)-6-methylindolin-5-yl)acetic acid]		1
COc1c(C)cccc1C(=O)N1CCc2c1cc(C)c([C@H](OC(C)(C)C)C(=O)O)c2-c1cc(F)c2c(c1C)CCCO2 (atropisomer, axis not shown) [Example 87, (S)-2-(tert-Butoxy)-2-((R)-4-(8-fluoro-5-methylchroman-6-yl)-1-(2-methoxy-3-methylbenzoyl)-6-methylindolin-5-yl)acetic acid]	5	
COc1ccccc1C(=O)N1CCc2c1cc(C)c([C@H](OC(C)(C)C)C(=O)O)c2-c1ccc(C)cc1 [Example 17, (S)-2-(tert-Butoxy)-2-(1-(2-methoxybenzoyl)-6-methyl-4-(p-tolyl)indolin-5-yl)acetic acid]	11	
Cc1cc2c(c(-c3cc(F)c4c(c3C)CCCO4)c1[C@H](OC(C)(C)C)C(=O)O)CCN2C(=O)C1CCC1 (atropisomer, axis not shown) [Example 161, (S)-2-(tert-Butoxy)-2-((R)-1-(cyclobutanecarbonyl)-4-(8-fluoro-5-methylchroman-6-yl)-6-methylindolin-5-yl)acetic acid]	81	
Cc1ccc(-c2c3c(cc(C)c2[C@H](OC(C)(C)C)C(=O)O)N(S(=O)(=O)C2CCCCC2)CC3)cc1 [Example 28, (S)-2-(tert-Butoxy)-2-(1-(cyclohexylsulfonyl)-6-methyl-4-(p-tolyl)indolin-5-yl)acetic acid]	11400	
Cc1cc2c(c(-c3cc(F)c4c(c3C)CCCO4)c1[C@H](OC(C)(C)C)C(=O)O)CCN2C(=O)c1cc(Cl)ccn1 (atropisomer, axis not shown) [Example 103, (S)-2-(tert-Butoxy)-2-((R)-1-(4-chloropicolinoyl)-4-(8-fluoro-5-methylchroman-6-yl)-6-methylindolin-5-yl)acetic acid]	16	
Cc1cc2c(c(-c3cc(F)c4c(c3C)CCCO4)c1[C@H](OC(C)(C)C)C(=O)O)CCN2C(=O)c1cccc(Cl)c1 (atropisomer, axis not shown) [Example 52, (S)-2-(tert-Butoxy)-2-((R)-1-(3-chlorobenzoyl)-4-(8-fluoro-5-methylchroman-6-yl)-6-methylindolin-5-yl)acetic acid]	2	
